# Reference: patent US20210059977A1, “COMBINATION THERAPIES FOR THE TREATMENT OF AMYOTROPHIC LATERAL SCLEROSIS AND RELATED DISORDERS” (The General Hospital Corporation, priority 2018, published 2021)
# How the values were obtained:
# GPR35 [1] = assay: GPR35 immunofluorescence, lumbar spinal cord; type: in vivo, mice; details: TgSOD1-Cromolyn vs TgSOD1-Vehicle
# Experimental: Frozen mouse lumbar spinal cord was sectioned at […] and stained using previously described methods. Tissue sections were fixed with 4% paraformaldehyde and blocked in a mixture of phosphate-buffered saline (PBS), 5% BSA, and normal goat serum. Co-staining was done using antibodies specific for GPR35 (Novus Biologicals, Littleton, Colo.; NBP2-24640) and NeuN (Millipore Sigma, Temecula, Calif.; MAB377 overnight at 4° C. Following three washes with PBS, sections were incubated with Cy3-conjugated goat anti-mouse and FITC-conjugated goat anti-rabbit antibodies (Jackson ImmunoResearch, West Grove, Pa.). Ten 20× fields were imaged from each section and analyzed using open source software from the National Institutes of Health (ImageJ).
# (§1) 149 male and female age- and litter-matched transgenic (Tg) SOD1^G93A and wild-type (Wt) SOD1^G93A mice were used with the following breakdown: Females (19 WtSOD1-Vehicle, 17 WtSOD1-Cromolyn, 19 TgSOD1-Vehicle, and 17 TgSOD1-Cromolyn) and Males (18 WtSOD1-Vehicle, 21 WtSOD1-Cromolyn, 21 TgSOD1-Vehicle, 17 TgSOD1-Cromolyn).
# GPR35 [2] = assay: GPR35 western blots, spinal cord; type: in vivo, mice; details: non-lumbar region of the spinal cord; TgSOD1-Cromolyn vs TgSOD1-Vehicle; p=0.167
# Experimental: Western blots were performed as previously described (Mueller et al., 2018). Briefly, […] of mouse spinal cord protein was re-suspended in sample buffer, boiled at 95° C. for 5 minutes, and fractioned on 10-20% Tricine gels (Life Technologies), and the membrane was then blocked with 5% milk in tris-buffered saline with Tween 20 (TBST) before immunodetection with antibodies specific for the following: GPR35 (Novus Biologicals, Littleton, Colo.; NBP2-24640), and beta-actin (Cell Signaling Technology, Danvers, Mass.; 4967S). Primary antibody incubation overnight was followed by 4 washes (15 min, RT) in TBST before incubation with the secondary antibody for 1 h (HRP-conjugated goat anti-rabbit IgG Jackson ImmunoResearch Laboratories, West Grove, Pa.; and HRP-conjugated goat anti-mouse Bio-Rad Laboratories Hercules, Calif.). After 4 washes in TBST (15 min, RT) proteins were visualized using the ECL detection system (NEN, Boston, Mass.). GPR35 integrated density values (IDV) were normalized to beta-actin.
# as §1
# SOD1^G93A mouse model [3] = assay: Rotarod; type: in vivo, mice; details: TgSOD1-Cromolyn vs TgSOD1-Vehicle; 6.3 mg/kg i.p.
# Experimental: Mice were placed on a fixed speed (16 rpm) rotating rod (3.0 cm) (Rotamex, Columbus Instruments) as previously described. Mice were trained to remain on the rotarod for 180 seconds once at P40. For each experimental time point (P70, P90, P110, P130, P150), the time mice spent on the rotating rod was calculated up to a maximum of 180 seconds. Three trials were performed for each time point and the greatest value for each session was used for analysis.
# as §1
# SOD1^G93A mouse model [4] = assay: Age at paresis onset; type: in vivo, mice
# Experimental: Beginning at P50, weight and neurological score (using the ALS TDI criteria) (Hatzipetros, T., et al. (2015). “A Quick Phenotypic Neurological Scoring System for Evaluating Disease Progression in the SOD1-G93A Mouse Model of ALS.” J Vis Exp(104); Leitner M., et. al. (2009). “Working with ALS mice: Guidelines for preclinical testing & colony management.” The Jackson Laboratory) were recorded for each mouse every 5 days until death or euthanasia. ALS TDI criteria are as follows: • Score of 0: Full extension of hind legs away from lateral midline when mouse is suspended by its tail, and mouse can hold this for two seconds, suspended two to three times. • Score of 1: Collapse or partial collapse of leg extension towards lateral midline (weakness) or trembling of hind legs during tail suspension. • Score of 2: Toes curl under at least twice during walking of 12 inches, or any part of foot is dragging along cage bottom/table. • Score of 3: Rigid paralysis or minimal joint movement, foot not being used for generating forward motion. • Score of 4: Mouse cannot right itself within 15 seconds after being placed on either side. *Mice were euthanized upon obtaining a score of 4.
# as §1
# alpha-synuclein peptides = alpha-synuclein peptides (Homo sapiens, UniProt P37840); details: cited from earlier work
# [5] = target: G-protein-coupled receptor 35 (GPR35) (Homo sapiens, UniProt Q9HC97); details: cited from earlier work
# Sequence of G-protein-coupled receptor 35 (GPR35) (Q9HC97 whole entry, species assumed): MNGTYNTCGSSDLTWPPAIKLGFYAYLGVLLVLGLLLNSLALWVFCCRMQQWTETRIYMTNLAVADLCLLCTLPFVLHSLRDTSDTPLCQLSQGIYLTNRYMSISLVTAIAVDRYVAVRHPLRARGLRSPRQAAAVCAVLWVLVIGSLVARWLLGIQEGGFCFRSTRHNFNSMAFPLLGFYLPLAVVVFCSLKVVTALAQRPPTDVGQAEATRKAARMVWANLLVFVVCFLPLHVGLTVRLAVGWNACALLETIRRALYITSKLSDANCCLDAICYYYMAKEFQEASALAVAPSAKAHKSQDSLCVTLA
compound,measurement,setting,value
"O=C(O)c1cc(=O)c2c(OCC(O)COc3cccc4oc(C(=O)O)cc(=O)c34)cccc2o1 [cromolyn, cromolyn sodium]",neuronal GPR35 levels (co-localized with NeuN),GPR35 [1]; p=0.0411,significant increase in neuronal GPR35 levels
same,GPR35 levels (immunofluorescence intensity),GPR35 [1]; p=0.0449,significant increase in GPR35 levels
same,"GPR35 levels (western blot, normalized to beta-actin)",GPR35 [2],trend towards an increase
same,rotarod performance,SOD1^G93A mouse model [3],no difference in rotarod performance
same,median age of onset (age at paresis onset),"SOD1^G93A mouse model [4]; TgSOD1-Cromolyn group, all mice, 6.3 mg/kg i.p., vehicle group 99 days",107 days
same,onset of motor symptoms as measured by age at paresis onset,"SOD1^G93A mouse model [4]; all TgSOD1 mice, Mantel-Cox test, p<0.0001",significant effect of cromolyn treatment on the onset of motor symptoms
same,onset of motor symptoms,"SOD1^G93A mouse model [4]; female mice, Mantel-Cox test, p=0.0009",significant delay in the onset of motor symptoms
same,onset of motor symptoms,"SOD1^G93A mouse model [4]; male mice, Mantel-Cox test, p=0.0193",significant delay in the onset of motor symptoms
same,binding to alpha-synuclein peptides and polymerization,alpha-synuclein peptides,inhibiting their polymerization to higher order aggregates
same,agonism of GPR35,[5],potent agonist
